Reference: patent publication US6593301B1, “Use of steroidal saponins for the prophylaxis or treatment of dementia, and novel steroidal saponin compounds” (Institute of Radiation Medicine, priority 2000, dated 2003)
Where two headings read alike, the source gives them in different places.

Key:
[1] = Scavenging effects on hydroxyl free radicals (Fenton reaction, ESR)
cerebral basilar artery = assay: Experiment on cerebral basilar artery (isolated artery on transducer, KCl as vasoconstrictor); conditions: for Effect on the basilar artery (dilation): 50 μl solution added to the bath
Experimental: Take 50 μl solutions to dissolved in 5 ml saline again. (2). Remove the cerebrum and cerebellum from the fresh brain, and get the middle part of the basilar artery (3). Adjust the transducer and amplifier to make pointer return to zero (4). Hang the basilar artery on the transducer and immerse it in the bath.

[2] = test system: rat hippocampus neuronal cells; assay: Proliferation of rat hippocampus neuronal cells (MTT staining, OD); type: cell-based; conditions: 7 days
Experimental: 1. Get hippocampus neuronal cells from rat embryo and do preliminary cell culture.
2. Incubate the cells for 7 days at different concentration (3 or 5 parallel holes for each group).
3. Do MTT staining and measure OD value.

[3] = test system: nicotinic receptors (SY-SH5Y human neuroblastoma cell); conditions: SY-SH5Y cells treated three days, 1 μM up to 100 μM
Experimental: (§1) In the experiments, we used two different cell lines, SY-SH5Y and M10. SY-SH5Y is human neuroblastoma cell which expresses natural nicotinic and muscarinic receptors, and M10 cell expresses the recombinant a4b2 subtype of chicken nicotinic receptor. We treated both cell lines with Compound III for three days with different concentrations from 1 μM up to 100 μM, and measured the amount of nAChRs.

[4] = test system: recombinant a4b2 subtype of chicken nicotinic receptor (M10 cells); conditions: M10 cells treated three days, 1 μM up to 100 μM
Experimental: as §1

rat thoracic aorta = conditions: 0.04 mM
Text: Take thoracic aorta from rat, remove the connective tissue and blood, immerse the aorta into the Krebs-Henselelt liquid and ventilate oxygen, hang the aorta on the transducer, and assay its radial tension.

[5] = test system: cerebral blood flow of rat; conditions: for Mean of rCBF / Rate of rCBF increase / rCBF Rat 1 / rCBF Rat 2 / rCBF Rat 3 / rCBF Rat 4: 50 μg/Kg intravenous
Experimental: Method: Hydrogen-clearing method
Instrument: LS-III Blood Flow Meter
1. Anesthetize the rat with 10% chloral hydrate, separate the general vein of thigh and intubate to prepare to inject Compound III.
2. Open a window in the parietal lobe of dermal epithelium with cranial drill and lay up hydrogen electrode.
3. After operation, collect the animal with the Blood Follow Meter and computer, steady for 30 minutes and begin to measure the rCBF (regional cerebral blood flow).

CC1=C(CC[C@H](C)CO[C@@H]2O[C@H](CO)[C@@H](O)[C@H](O)[C@H]2O)O[C@H]2C[C@H]3[C@@H]4CC[C@@H]5C[C@@H](O[C@@H]6O[C@H](CO)[C@H](O)[C@H](O)[C@H]6O[C@@H]6O[C@H](CO)[C@@H](O)[C@H](O)[C@H]6O)CC[C@]5(C)[C@H]4CC[C@]3(C)[C@@H]12 [Compound I, (25S)-26-O-β-D-glucopyranosyl-5β-furost-20(22)-ene-3β,26-diol-3-O-β-D-glucopyranosyl(1→2)-β-D-galactopyranoside]
Scavenging rate ([1]; 5 mg/ml, ESR, Fenton reaction): 23.3% | Scavenging of hydroxyl free radicals produced by Fenton reaction (in words) ([1]; Fe^2++H2O2): could scavenge | Effect on the basilar artery (dilation) (cerebral basilar artery): no obvious effect

CC1=C(CC[C@H](C)CO[C@@H]2O[C@H](CO)[C@@H](O)[C@H](O)[C@H]2O)O[C@H]2C[C@H]3[C@@H]4CC[C@@H]5C[C@@H](O[C@@H]6O[C@H](CO)[C@@H](O)[C@H](O)[C@H]6O[C@@H]6O[C@H](CO)[C@@H](O)[C@H](O)[C@H]6O)CC[C@]5(C)[C@H]4CC[C@]3(C)[C@@H]12 [Compound II, (25S)-26-O-β-D-glucopyranosyl-5β-furost-20(22)-ene-3β,26-diol-3-O-β-D-glucopyranosyl(1→2)-β-D-glucopyranoside]
Scavenging rate ([1]; 5 mg/ml, ESR, Fenton reaction): 40.0% | Scavenging of hydroxyl free radicals produced by Fenton reaction (in words) ([1]; Fe^2++H2O2): could scavenge | Effect on the basilar artery (dilation) (cerebral basilar artery): no obvious effect

C[C@@H](CCC1(O)O[C@H]2C[C@H]3[C@@H]4CC[C@@H]5C[C@@H](O[C@@H]6O[C@H](CO)[C@H](O)[C@H](O)[C@H]6O[C@@H]6O[C@H](CO)[C@@H](O)[C@H](O)[C@H]6O)CC[C@]5(C)[C@H]4CC[C@]3(C)[C@H]2[C@@H]1C)CO[C@@H]1O[C@H](CO)[C@@H](O)[C@H](O)[C@H]1O (stereo partly drawn) [Compound III, (25S)-26-β-D-glucopyranosyl-22-hydroxy-5β-furost-3β,26-diol-3-0-β-D-glucopyranosyl(1→2)-β-D-galactopyranoside]
Mean of OD ([2]; 0.1 μg/ml): 0.0773 | Proliferation rate ([2]; 0.1 μg/ml): 23.88% | Mean of OD ([2]; 1 μg/ml): 0.0663 | Proliferation rate ([2]; 1 μg/ml): 6.25% | Mean of OD ([2]; 10 μg/ml): 0.0860 | Proliferation rate ([2]; 10 μg/ml): 37.82% | Mean of OD ([2]; 50 μg/ml): 0.0807 | Proliferation rate ([2]; 50 μg/ml): 29.33% | Mean of OD ([2]; 100 μg/ml): 0.0750 | Proliferation rate ([2]; 100 μg/ml): 20.19% | Mean of OD ([2]; 500 μg/ml): 0.0903 | Proliferation rate ([2]; 500 μg/ml): 44.71% | Mean of OD ([2]; 1000 μg/ml): 0.0673 | Proliferation rate ([2]; 1000 μg/ml): 7.853% | Inhibitory rate (hydroxyl free radicals) [1]: 56.7% | Scavenging effect relative to the other compounds [1]: most effective | Scavenging of hydroxyl free radicals produced by Fenton reaction (in words) [1]: could scavenge | Scavenging rate [1]: 56.7% | Effect on the basilar artery (dilation) (cerebral basilar artery): dilated slightly | Contraction of the basilar artery when adding the vasoconstrictor KCl (cerebral basilar artery; after 50 μl compound added to the bath): did not contract again | Dilation of cerebral vascular and resistance to contraction caused by vasoconstrictor (cerebral basilar artery; at 10^−5 g/ml (0.01 mM)): could dilate cerebral vascular and resist the contraction caused by vasoconstrictor | Effective concentration compared with positive Ligustrazine (cerebral basilar artery; same experimental conditions): two orders of magnitude lower | Number of nAChRs [3]: significantly up-regulate | Number of nAChRs [4]: significantly up-regulate | Inhibition of contraction of rat aorta caused by KCl (rat thoracic aorta): could restrain the contraction | Mean of rCBF ([5]; 1 min): 141562.5 µL/min/mg | Rate of rCBF increase ([5]; 1 min): 7.806% | rCBF Rat 1 ([5]; 1 min): 133300 µL/min/mg | rCBF Rat 2 ([5]; 1 min): 150050 µL/min/mg | rCBF Rat 3 ([5]; 1 min): 139550 µL/min/mg | rCBF Rat 4 ([5]; 1 min): 143350 µL/min/mg | Mean of rCBF ([5]; 10 min): 149785 µL/min/mg | Rate of rCBF increase ([5]; 10 min): 14.07% | rCBF Rat 1 ([5]; 10 min): 147990 µL/min/mg | rCBF Rat 2 ([5]; 10 min): 143410 µL/min/mg | rCBF Rat 3 ([5]; 10 min): 162100 µL/min/mg | rCBF Rat 4 ([5]; 10 min): 145640 µL/min/mg | Mean of rCBF ([5]; 20 min): 148405 µL/min/mg | Rate of rCBF increase ([5]; 20 min): 13.02% | rCBF Rat 1 ([5]; 20 min): 158460 µL/min/mg | rCBF Rat 2 ([5]; 20 min): 136330 µL/min/mg | rCBF Rat 3 ([5]; 20 min): 177590 µL/min/mg | rCBF Rat 4 ([5]; 20 min): 121240 µL/min/mg | Mean of rCBF ([5]; 30 min): 163497.5 µL/min/mg | Rate of rCBF increase ([5]; 30 min): 24.51% | rCBF Rat 1 ([5]; 30 min): 164610 µL/min/mg | rCBF Rat 2 ([5]; 30 min): 182960 µL/min/mg | rCBF Rat 3 ([5]; 30 min): 171420 µL/min/mg | rCBF Rat 4 ([5]; 30 min): 135000 µL/min/mg | Mean of rCBF ([5]; 40 min): 164670 µL/min/mg | Rate of rCBF increase ([5]; 40 min): 25.4% | rCBF Rat 1 ([5]; 40 min): 176900 µL/min/mg | rCBF Rat 2 ([5]; 40 min): 202460 µL/min/mg | rCBF Rat 3 ([5]; 40 min): 165940 µL/min/mg | rCBF Rat 4 ([5]; 40 min): 113380 µL/min/mg | Mean of rCBF ([5]; 50 min): 166147.5 µL/min/mg | Rate of rCBF increase ([5]; 50 min): 26.53% | rCBF Rat 1 ([5]; 50 min): 176770 µL/min/mg | rCBF Rat 2 ([5]; 50 min): 193570 µL/min/mg | rCBF Rat 3 ([5]; 50 min): 163080 µL/min/mg | rCBF Rat 4 ([5]; 50 min): 131170 µL/min/mg | Increase of the rCBF of rat ([5]; 50 μg/kg in vivo (text summary, time not stated)): 26.5% | Hemolysis ([5]; administered intravenously at the effective concentration (50 μg/kg)): no hemolysis

COC1(CC[C@H](C)CO[C@@H]2O[C@H](CO)[C@@H](O)[C@H](O)[C@H]2O)O[C@H]2C[C@H]3[C@@H]4CC[C@@H]5C[C@@H](O[C@@H]6O[C@H](CO)[C@H](O)[C@H](O)[C@H]6O[C@@H]6O[C@H](CO)[C@@H](O)[C@H](O)[C@H]6O)CC[C@]5(C)[C@H]4CC[C@]3(C)[C@H]2[C@@H]1C (stereo partly drawn) [Compound IV, (25S)-26-0-β-D-glucopyranosyl-22-methoxy-5β-furost-3β,26-diol-3-0-β-D-glucopyranosyl(1→2)-β-D-galactopyranoside]
Scavenging of hydroxyl free radicals produced by Fenton reaction (in words) [1]: could scavenge | Scavenging rate [1]: 33.3% | Effect on the basilar artery (dilation) (cerebral basilar artery): no obvious effect
